Test system: MDA-MB-231
Assay: Cytotoxicity against human MDA-MB-231 cells by SRB assay
Type: functional
Settings: not given

Compound	GI50	TGI
COC1=C(Br)[C@H](O)[C@@]2(C=C1Br)CC(C(=O)NCCCCCNC(=O)C1=NO[C@]3(C=C(Br)C(OC)(OC)[C@@H](Br)[C@@H]3O)C1)=NO2	4.2 µM	6 µM
O=C(NCCCCCNC(=O)C1=NO[C@]2(C=C(Br)C(=O)[C@H](Br)[C@@H]2O)C1)C1=NO[C@]2(C=C(Br)C(=O)[C@H](Br)[C@@H]2O)C1	1.7 µM	2.4 µM
COC1=C(Br)[C@H](O)[C@@]2(C=C1Br)CC(C(=O)NCCCCCNC(=O)C1=NO[C@]3(C=C(Br)C(=O)[C@H](Br)[C@@H]3O)C1)=NO2	3.5 µM	4.9 µM
COC1=C(Br)[C@H](O)[C@@]2(C=C1Br)CC(C(=O)NCCCCNC(=O)C1=NO[C@]3(C=C(Br)C(=O)[C@H](Br)[C@@H]3O)C1)=NO2	2.9 µM	4.7 µM
COC1(OC)C(Br)=C[C@@]2(CC(C(=O)NCCCCCNC(=O)C3=NO[C@]4(C=C(Br)C(OC)(OC)[C@@H](Br)[C@@H]4O)C3)=NO2)[C@@H](O)[C@@H]1Br	> 10 µg/mL	> 10 µg/mL
COC1=C(Br)[C@H](O)[C@@]2(C=C1Br)CC(C(=O)NCCCCNC(=O)C1=NO[C@]3(C=C(Br)C(OC)=C(Br)[C@@H]3O)C1)=NO2 [AEROTHIONIN]	> 10 µg/mL	> 10 µg/mL

Same assay, conditions: read-out: LC50 (the source's name)

Compound	CC50
COC1=C(Br)[C@H](O)[C@@]2(C=C1Br)CC(C(=O)NCCCCCNC(=O)C1=NO[C@]3(C=C(Br)C(OC)(OC)[C@@H](Br)[C@@H]3O)C1)=NO2	9.6 µM
O=C(NCCCCCNC(=O)C1=NO[C@]2(C=C(Br)C(=O)[C@H](Br)[C@@H]2O)C1)C1=NO[C@]2(C=C(Br)C(=O)[C@H](Br)[C@@H]2O)C1	3.5 µM
COC1=C(Br)[C@H](O)[C@@]2(C=C1Br)CC(C(=O)NCCCCCNC(=O)C1=NO[C@]3(C=C(Br)C(=O)[C@H](Br)[C@@H]3O)C1)=NO2	6.7 µM
COC1=C(Br)[C@H](O)[C@@]2(C=C1Br)CC(C(=O)NCCCCNC(=O)C1=NO[C@]3(C=C(Br)C(=O)[C@H](Br)[C@@H]3O)C1)=NO2	8 µM
COC1(OC)C(Br)=C[C@@]2(CC(C(=O)NCCCCCNC(=O)C3=NO[C@]4(C=C(Br)C(OC)(OC)[C@@H](Br)[C@@H]4O)C3)=NO2)[C@@H](O)[C@@H]1Br	> 10 µg/mL
COC1=C(Br)[C@H](O)[C@@]2(C=C1Br)CC(C(=O)NCCCCNC(=O)C1=NO[C@]3(C=C(Br)C(OC)=C(Br)[C@@H]3O)C1)=NO2 [AEROTHIONIN]	> 10 µg/mL

Test system: A549
Assay: Cytotoxicity against human A549 cells by SRB assay
Type: functional
Settings: not given

Compound	GI50	TGI
COC1=C(Br)[C@H](O)[C@@]2(C=C1Br)CC(C(=O)NCCCCCNC(=O)C1=NO[C@]3(C=C(Br)C(OC)(OC)[C@@H](Br)[C@@H]3O)C1)=NO2	7.1 µM	> 10 µg/mL
O=C(NCCCCCNC(=O)C1=NO[C@]2(C=C(Br)C(=O)[C@H](Br)[C@@H]2O)C1)C1=NO[C@]2(C=C(Br)C(=O)[C@H](Br)[C@@H]2O)C1	2.4 µM	3.5 µM
COC1=C(Br)[C@H](O)[C@@]2(C=C1Br)CC(C(=O)NCCCCCNC(=O)C1=NO[C@]3(C=C(Br)C(=O)[C@H](Br)[C@@H]3O)C1)=NO2	5.4 µM	8.7 µM
COC1=C(Br)[C@H](O)[C@@]2(C=C1Br)CC(C(=O)NCCCCNC(=O)C1=NO[C@]3(C=C(Br)C(=O)[C@H](Br)[C@@H]3O)C1)=NO2	5.6 µM	> 10 µg/mL
COC1(OC)C(Br)=C[C@@]2(CC(C(=O)NCCCCCNC(=O)C3=NO[C@]4(C=C(Br)C(OC)(OC)[C@@H](Br)[C@@H]4O)C3)=NO2)[C@@H](O)[C@@H]1Br	> 10 µg/mL	> 10 µg/mL
COC1=C(Br)[C@H](O)[C@@]2(C=C1Br)CC(C(=O)NCCCCNC(=O)C1=NO[C@]3(C=C(Br)C(OC)=C(Br)[C@@H]3O)C1)=NO2 [AEROTHIONIN]	> 10 µg/mL	> 10 µg/mL

Same assay, conditions: read-out: LC50 (the source's name)

Compound	CC50
COC1=C(Br)[C@H](O)[C@@]2(C=C1Br)CC(C(=O)NCCCCCNC(=O)C1=NO[C@]3(C=C(Br)C(OC)(OC)[C@@H](Br)[C@@H]3O)C1)=NO2	> 10 µg/mL
O=C(NCCCCCNC(=O)C1=NO[C@]2(C=C(Br)C(=O)[C@H](Br)[C@@H]2O)C1)C1=NO[C@]2(C=C(Br)C(=O)[C@H](Br)[C@@H]2O)C1	5.5 µM
COC1=C(Br)[C@H](O)[C@@]2(C=C1Br)CC(C(=O)NCCCCCNC(=O)C1=NO[C@]3(C=C(Br)C(=O)[C@H](Br)[C@@H]3O)C1)=NO2	11.2 µM
COC1=C(Br)[C@H](O)[C@@]2(C=C1Br)CC(C(=O)NCCCCNC(=O)C1=NO[C@]3(C=C(Br)C(=O)[C@H](Br)[C@@H]3O)C1)=NO2	> 10 µg/mL
COC1(OC)C(Br)=C[C@@]2(CC(C(=O)NCCCCCNC(=O)C3=NO[C@]4(C=C(Br)C(OC)(OC)[C@@H](Br)[C@@H]4O)C3)=NO2)[C@@H](O)[C@@H]1Br	> 10 µg/mL
COC1=C(Br)[C@H](O)[C@@]2(C=C1Br)CC(C(=O)NCCCCNC(=O)C1=NO[C@]3(C=C(Br)C(OC)=C(Br)[C@@H]3O)C1)=NO2 [AEROTHIONIN]	> 10 µg/mL

Test system: HT-29
Assay: Cytotoxicity against human HT29 cells by SRB assay
Type: functional
Settings: not given

Compound	GI50	TGI
COC1=C(Br)[C@H](O)[C@@]2(C=C1Br)CC(C(=O)NCCCCCNC(=O)C1=NO[C@]3(C=C(Br)C(OC)(OC)[C@@H](Br)[C@@H]3O)C1)=NO2	4.8 µM	> 10 µg/mL
O=C(NCCCCCNC(=O)C1=NO[C@]2(C=C(Br)C(=O)[C@H](Br)[C@@H]2O)C1)C1=NO[C@]2(C=C(Br)C(=O)[C@H](Br)[C@@H]2O)C1	1.6 µM	2.5 µM
COC1=C(Br)[C@H](O)[C@@]2(C=C1Br)CC(C(=O)NCCCCCNC(=O)C1=NO[C@]3(C=C(Br)C(=O)[C@H](Br)[C@@H]3O)C1)=NO2	4.8 µM	5 µM
COC1=C(Br)[C@H](O)[C@@]2(C=C1Br)CC(C(=O)NCCCCNC(=O)C1=NO[C@]3(C=C(Br)C(=O)[C@H](Br)[C@@H]3O)C1)=NO2	3.4 µM	4.9 µM
COC1(OC)C(Br)=C[C@@]2(CC(C(=O)NCCCCCNC(=O)C3=NO[C@]4(C=C(Br)C(OC)(OC)[C@@H](Br)[C@@H]4O)C3)=NO2)[C@@H](O)[C@@H]1Br	> 10 µg/mL	> 10 µg/mL
COC1=C(Br)[C@H](O)[C@@]2(C=C1Br)CC(C(=O)NCCCCNC(=O)C1=NO[C@]3(C=C(Br)C(OC)=C(Br)[C@@H]3O)C1)=NO2 [AEROTHIONIN]	> 10 µg/mL	> 10 µg/mL

Same assay, conditions: read-out: LC50 (the source's name)

Compound	CC50
COC1=C(Br)[C@H](O)[C@@]2(C=C1Br)CC(C(=O)NCCCCCNC(=O)C1=NO[C@]3(C=C(Br)C(OC)(OC)[C@@H](Br)[C@@H]3O)C1)=NO2	> 10 µg/mL
O=C(NCCCCCNC(=O)C1=NO[C@]2(C=C(Br)C(=O)[C@H](Br)[C@@H]2O)C1)C1=NO[C@]2(C=C(Br)C(=O)[C@H](Br)[C@@H]2O)C1	3.7 µM
COC1=C(Br)[C@H](O)[C@@]2(C=C1Br)CC(C(=O)NCCCCCNC(=O)C1=NO[C@]3(C=C(Br)C(=O)[C@H](Br)[C@@H]3O)C1)=NO2	5.4 µM
COC1=C(Br)[C@H](O)[C@@]2(C=C1Br)CC(C(=O)NCCCCNC(=O)C1=NO[C@]3(C=C(Br)C(=O)[C@H](Br)[C@@H]3O)C1)=NO2	8.5 µM
COC1(OC)C(Br)=C[C@@]2(CC(C(=O)NCCCCCNC(=O)C3=NO[C@]4(C=C(Br)C(OC)(OC)[C@@H](Br)[C@@H]4O)C3)=NO2)[C@@H](O)[C@@H]1Br	> 10 µg/mL
COC1=C(Br)[C@H](O)[C@@]2(C=C1Br)CC(C(=O)NCCCCNC(=O)C1=NO[C@]3(C=C(Br)C(OC)=C(Br)[C@@H]3O)C1)=NO2 [AEROTHIONIN]	> 10 µg/mL
